US9072698B2, “Method for screening anti-cancer compounds inhibiting function of TM4SF5 and anti-cancer composition containing chalcone compounds” (Seoul National University Industry Foundation, priority 2006, dated 2015)
Converted amounts (≈) assume the structure as drawn.

What was measured:
MMP-2 and MMP-9 = assay: Gelatin zymography of culture supernatants (FIG. 68); type: cell-based, human; details: 20 μM, 24 hrs
Method: The substrate degradation activity of secreted MMPs was investigated using gelatin zymography. Cell lines, indicated in FIG. 62, were cultured in 60-mm culture dishes. After 18 hrs, the medium was exchanged with serum-free medium, and cells were cultured for a further 24 hrs. Culture supernatants were collected to obtain secreted MMPs, and were then concentrated. Samples were electrophoresed on the running SDS-PAGE gel containing gelatin as a substrate for MMPs under reducing conditions. The gel was washed in 1% Triton X-100 to remove SDS, thus renaturing the enzymes. The gel was then incubated in enzyme reaction buffer (10 mM CaCl2, 0.15 M NaCl, 50 mM Tris-HCl, pH 7.5) at 37° C. for 18 hrs. The gel was stained with 0.5% Coomassie Brilliant Blue R250 for 3 hrs, and destained until clear bands appeared in 10% acetic acid and 30% methanol.
In addition, Cp cells and Tp cells were treated with 20 μM of TSAHC for 24 hrs. The medium was exchanged with serum-free medium, and cells were cultured for a further 18 hrs. Culture supernatants were collected, concentrated, and analyzed using zymography, as described above.

TM4SF5-expressing cells = assay: Immunostaining for DNA and the actin cytoskeleton, cell shape (FIG. 49); type: cell-based, human
Method: (§1) When cells were transfected with given specific genes or infected with various viruses, they were used after being cultured for a given period of time. Cells treated with 10 mM lysophosphatidic acid (LPA) were used 1 hour after being attached to cover glasses. Immunofluorescent staining was carried out by preparing a slide for fluorescent analysis through incubation with a primary antibody against a target protein, washing out unbound antibody molecules, incubation with a fluorescein-conjugated secondary antibody and washing out unbound antibody molecules, and actin filament staininh was carried out with rhodamine-conjugated phalloidin. Antibodies used included antibodies against E-cadherin, β-catenin, FLAG, 4′-6-diamidino-2-phenylindole (DAPI), 5-brorno-2′-deoxy-uridine (BrdU), p27^kip1, ZO1 (zonula occludens-1), and the like. Immunofluorescent stained cover glasses were placed on slides and observed under a fluorescence microscope or a confocal laser scanning microscope.

[1] = tested on: HCT15 (colon adenocarcinoma); assay: In vitro cytotoxicity, sulforhodamine B (SRB) method, HCT15; type: cell-based; details: Homo sapiens; HCT-15, SRB method; read-out: cytotoxicity (ED50) HCT-15
Method in brief: (§2)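 Cells grown in RPMI 1640 with 10% FCS at 37 °C, 5% CO2 were exposed to compounds at 30, 10, 3, 1 and 0.3 μg/ml final, with DMSO below 0.5%. Cytotoxicity was read by the standard NCI sulforhodamine B protein-staining method.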

A-549 (lung carcinoma) = assay: In vitro cytotoxicity, sulforhodamine B (SRB) method, A-549; type: cell-based; details: Homo sapiens, A549; A-549, SRB method; read-out: cytotoxicity (ED50) A-549
Method in brief: as §2

[2] = tested on: p27^kip1, pS^10p27^kip1, pY^577FAK and α-SMA; assay: Western blotting for TM4SF5-mediated protein expression (FIG. 46); type: cell-based, human
Method: Cell lysates, obtained under various experimental conditions, were prepared using RIPA buffer after cells under various conditions were washed with PBS. In special cases, employed cells were transfected with given expression vectors or infected with an adenovirus expressing an shRNA to TM4SF5 or a siRNA to p27^kip1. In addition, cells treated with 10 μM of cycloheximide for a given period of time were used. For such cell lysates, protein was quantified, and the same amounts of protein were used. Western blotting was performed using antibodies to phospho-Y^577FAK, phospho-Y^416Src, c-Src, RhoA, p120^ctn, β-catenin, pS^10p27^kip1, FAK, E-cadherin, ZO1, Rac1, p190RhoGAP, p27^kip1, GRAF, hKIS, desmoplakin, α-tubulin, α-catenin, and α-smooth muscle actin (α-SMA).

[3] = tested on: cells endogenously expressing TM4SF5; assay: Growth/proliferation of cells endogenously expressing TM4SF5 (FIG. 51); type: cell-based
SNU449Tp cells [4] = assay: Cell growth over time of TM4SF5-expressing cells (FIG. 43, right); type: cell-based, human; details: TSAHC at given concentrations
Method: Arrows indicate the overlapping nuclei of cells undergoing cell division. […] In addition, in order to measure the growth rates of the cells, 5×10^4 cells were plated onto 6-well plates and counted every 12 hrs. The results are expressed as a graph. […] This was observed even at a low cell density. That is, among cells at a low density, TM4SF5-expressing cells proliferated through cell division, during which two nuclei overlapped each other.

SNU449Tp cells [5] = assay: Comparison of TSAHC and analogues: cell morphology and multilayer growth by optical microscope (FIG. 69); type: cell-based, human; details: 20 μM, 24 hr treatment
Method: TSAHC and its structural analogues were compared for their effects on TM4SF5-mediated events. Dimethyl sulfoxide (DMSO) and chalcone analogues, used in this test, have the following chemical structure.
SNU449 Cp cells and SNU449Tp cells were plated onto 6-well plates and treated with the above compounds at 20 μM for 24 hrs. Cells were monitored for changes in cell morphology using an optical microscope.

SNU449Tp cells [6] = assay: Invasion into Matrigel, Transwell chamber (FIG. 67); type: cell-based, human; details: cultured for 24 hrs
Method: The invasiveness of SNU449Tp cells was also analyzed using Boyden Transwell chamber 24 well plates, as mentioned in Example 7-(1). Matrigel was added to the insert of the plates, and was allowed to solidify at 37° C. Cells were cultured as described above. After 24 hrs, cells on the upper surface of the membrane of the insert chamber were completely removed by wiping with a cotton swab. As a result, after […], cells that had invaded the lower side of the membrane were stained.
According to the same method described above, cells were seeded in the Transwell chamber, coated with a thick layer of Matrigel, and cultured for 24 hrs. Cells that invaded the Matrigel were counted, and the results are shown as a graph.

[7] = tested on: PC-3 (prostate adenocarcinoma); assay: In vitro cytotoxicity, sulforhodamine B (SRB) method, PC-3; type: cell-based; details: Homo sapiens; PC-3, SRB method; read-out: cytotoxicity (ED50) PC-3
Method in brief: as §2

SNU449Tp cells [8] = assay: Immunofluorescent staining for E-cadherin and β-catenin, cell-cell contact (FIG. 45); type: cell-based, human; details: 20 μM
Method: as §1

With `Cc1ccc(S(=O)(=O)Nc2ccc(C(=O)/C=C/c3ccc(O)cc3)cc2)cc1` [Compound 1, 4′-(p-toluenesulfonylamino)-4-hydroxychalcone] the “TM4SF5-mediated activity of MMPs” value (MMP-2 and MMP-9) was “inhibit the TM4SF5-mediated activity of MMPs”, the cell shape (TM4SF5-expressing cells) was “returned the elongated cell shape to the same polygonal shape as that of TM4SF5-null control cells” and the IC50 [1] was 35 µg/mL (≈ 89 µM). The IC50 (A-549 (lung carcinoma)) was 38 µg/mL (≈ 96.6 µM), the “expression levels of p27^kip1, pS^10p27^kip1, pY^577FAK and α-SMA” value [2] was “effectively reduce TM4SF5-mediated high expression levels of p27^kip1, pS^10p27^kip1, pY^577FAK and α-SMA” and the “growth or proliferation of cells endogenously expressing TM4SF5” value [3] was “inhibited the growth or proliferation of cells endogenously expressing TM4SF5”. For the same molecule, the “growth over time of TM4SF5-expressing cells” value (SNU449Tp cells [4]) was “reduced linear growth over time in a manner dependent on TSAHC concentrations”, the TM4SF5-mediated multilayer growth (SNU449Tp cells [5]) was “effectively stimulate the growth of TM4SF5-expressing cells, not in a multilayer but in a monolayer arrangement” and the cell morphology (SNU449Tp cells [5]) was “changed the cell morphology into the same shape as that of SNU449 control cells not expressing TM4SF5”. For the same molecule, the “invasion into Matrigel” value (SNU449Tp cells [6]) was “effectively inhibit invasion into Matrigel”, the IC50 [7] was 37 µg/mL (≈ 94 µM) and the cell-cell contact (SNU449Tp cells [8]) was “restored cell-cell contact”.
